Results published in ChEMBL document CHEMBL3621053, “Isoxazole derivatives of 6-fluoro-N-(6-methoxybenzo[d]thiazol-2-yl)benzo[d]thiazol-2-amine and N-(pyrimidin-2-yl)benzo[d]thiazol-2-amine: regulation of cell cycle and apoptosis by p53 activation via mitochondrial-dependent pathways” (Medchemcomm, 2014).
Activity calls are given as the source filed them. The rule behind the calls is not given here.

How the values were obtained:
A549 = test: Anticancer activity against human A549 cells by MTT assay; assay type: functional, cell-based
COLO 205 [1] = test: Increase in Bax expression in human COLO205 cells after 24 hrs by western blot analysis; assay type: functional, cell-based
[2] = Decrease in Bcl2 expression in human COLO205 cells after 24 hrs by western blot analysis; assay type: functional, cell-based; conditions: COLO 205
U-937 = test: Anticancer activity against human U937 cells by MTT assay; assay type: functional, cell-based
COLO 205 [3] = test: Induction of DNA damage in human COLO205 cells assessed as tail DNA formation by alkaline comet assay (reference value: 0%); assay type: functional
[4] = Anticancer activity against human COLO205 cells by MTT assay; assay type: functional, cell-based; conditions: COLO 205
COLO 205 [5] = test: Induction of cell cycle arrest in human COLO205 cells assessed as accumulation at G2/M phase after 24 hrs by flow cytometry; assay type: functional, cell-based
MCF7 = test: Anticancer activity against human MCF7 cells by MTT assay; assay type: functional, cell-based
[6] = Decrease in NFkappaB expression in human COLO205 cells after 24 hrs by western blot analysis; assay type: functional, cell-based; conditions: COLO 205
COLO 205 [7] = test: Increase in procaspase-3 expression in human COLO205 cells after 24 hrs by western blot analysis; assay type: functional, cell-based
COLO 205 [8] = test: Increase in caspase-9 expression in human COLO205 cells after 24 hrs by western blot analysis; assay type: functional, cell-based
COLO 205 [9] = test: Effect on CDK1 expression in human COLO205 cells by western blot analysis; assay type: functional, cell-based
COLO 205 [10] = test: Increase in active caspase-3 expression in human COLO205 cells after 24 hrs by western blot analysis; assay type: functional, cell-based
[11] = Decrease in cyclin B1 expression in human COLO205 cells by western blot analysis; assay type: functional, cell-based; conditions: COLO 205
COLO 205 [12] = test: Increase in Apaf1 expression in human COLO205 cells after 24 hrs by western blot analysis; assay type: functional, cell-based

Question: For `C#CCN(c1ncccn1)c1nc2ccccc2s1`, which IC50 (A549) is on record?
Answer: The IC50 was 17.4 µM.

Question: What about the inhibition (COLO 205 [1]) of the same compound?
Answer: The inhibition was “Active”.

Question: And the Activity [2]?
Answer: Its Activity is “Active”.

Question: What about the IC50 (U-937) of the same compound?
Answer: The IC50 was 15.7 µM.

Question: And the Activity (COLO 205 [3])?
Answer: Its Activity is 4.194%.

Question: And the IC50 [4]?
Answer: The IC50 was 12 µM.

Question: And the Activity (COLO 205 [5])?
Answer: Its Activity is “Active”.

Question: What about the IC50 (MCF7) of the same compound?
Answer: The IC50 was 18.3 µM.

Question: With `Brc1ccc(-c2cc(CN(c3ncccn3)c3nc4ccccc4s3)on2)cc1` as the compound, how does the IC50 (A549) read?
Answer: The IC50 was 31.5 µM.

Question: And the IC50 (U-937)?
Answer: Its IC50 is 13.6 µM.

Question: And the IC50 [4]?
Answer: The IC50 was 8.82 µM.

Question: What about the IC50 (MCF7) of the same compound?
Answer: Its IC50 is 21.1 µM.

Question: What does the source list for `COc1ccc2nc(N(Cc3cc(-c4ccc(Br)cc4)no3)c3nc4ccc(F)cc4s3)sc2c1`?
Answer: IC50 (A549): 32.7 µM; IC50 (U-937): 34.9 µM; IC50 [4]: 7 µM; IC50 (MCF7): 41.1 µM

Question: For `C#CCN(c1nc2ccc(F)cc2s1)c1nc2ccc(OC)cc2s1`, which IC50 (A549) is on record?
Answer: Its IC50 is 24.4 µM.

Question: And the IC50 (U-937)?
Answer: Its IC50 is 24.9 µM.

Question: And the IC50 [4]?
Answer: The IC50 was 30.3 µM.

Question: What about the IC50 (MCF7) of the same compound?
Answer: Its IC50 is 27.8 µM.

Question: What does the source list for `COc1cc([C@@H]2c3cc4c(cc3[C@@H](O[C@@H]3O[C@@H]5CO[C@@H](C)O[C@H]5[C@H](O)[C@H]3O)[C@H]3COC(=O)[C@H]23)OCO4)cc(OC)c1O` [ETOPOSIDE]?
Answer: IC50 (A549): 4.7 µM; inhibition (COLO 205 [1]): Active; Activity [2]: Active; IC50 (U-937): 10.1 µM; Activity (COLO 205 [3]): 6.564%; IC50 [4]: 0.47 µM; Activity (COLO 205 [5]): Active; IC50 (MCF7): 0.008 µM

Question: What does the source list for `FC(F)(F)Sc1ccc(-c2cc(CN(c3ncccn3)c3nc4ccccc4s3)on2)cc1`?
Answer: IC50 (A549): 29.8 µM; IC50 (U-937): 19.4 µM; IC50 [4]: 10.1 µM; IC50 (MCF7): 17.2 µM

Question: For `COc1cc(-c2cc(CN(c3ncccn3)c3nc4ccccc4s3)on2)cc(OC)c1OC`, which IC50 (A549) is on record?
Answer: The IC50 was 28.4 µM.

Question: And the IC50 (U-937)?
Answer: Its IC50 is 26.1 µM.

Question: What about the IC50 [4] of the same compound?
Answer: The IC50 was 10.2 µM.

Question: What about the IC50 (MCF7) of the same compound?
Answer: The IC50 was 13.4 µM.

Question: Which results are given for `COc1ccc2nc(N(Cc3cc(-c4cc(OC)c(OC)c(OC)c4)no3)c3nc4ccc(F)cc4s3)sc2c1`?
Answer: IC50 (A549): 61.9 µM; IC50 (U-937): 44 µM; IC50 [4]: 11.8 µM; IC50 (MCF7): 26.6 µM

Question: Which results are given for `FC(F)(F)Oc1ccc(-c2cc(CN(c3ncccn3)c3nc4ccccc4s3)on2)cc1`?
Answer: IC50 (A549): 31.8 µM; IC50 (U-937): 13.5 µM; IC50 [4]: 5.69 µM; IC50 (MCF7): 14.8 µM

Question: With `COc1ccc2nc(N(Cc3cc(-c4ccc(OC(F)(F)F)cc4)no3)c3nc4ccc(F)cc4s3)sc2c1` as the compound, how does the IC50 (A549) read?
Answer: The IC50 was 37.1 µM.

Question: What about the IC50 (U-937) of the same compound?
Answer: The IC50 was 23.1 µM.

Question: What about the IC50 [4] of the same compound?
Answer: Its IC50 is 9.94 µM.

Question: And the IC50 (MCF7)?
Answer: The IC50 was 17.4 µM.

Question: What does the source list for `COc1ccc(-c2cc(CN(c3ncccn3)c3nc4ccccc4s3)on2)cc1`?
Answer: inhibition [6]: Active; IC50 (A549): 30.4 µM; inhibition (COLO 205 [1]): Active; Activity [2]: Active; IC50 (U-937): 13.9 µM; Activity (COLO 205 [7]): Active; Activity (COLO 205 [3]): 17.72%; Activity (COLO 205 [8]): Active; IC50 [4]: 5.04 µM; Activity (COLO 205 [9]): inactive; Activity (COLO 205 [5]): Active; Activity (COLO 205 [10]): Active; inhibition [11]: Active; Activity (COLO 205 [12]): Active; IC50 (MCF7): 30.7 µM

Question: For `COc1ccc2nc(N(Cc3cc(-c4ccccc4F)no3)c3nc4ccc(F)cc4s3)sc2c1`, which IC50 (A549) is on record?
Answer: Its IC50 is 51.8 µM.

Question: And the IC50 (U-937)?
Answer: The IC50 was 29.4 µM.

Question: What about the IC50 [4] of the same compound?
Answer: The IC50 was 13.4 µM.

Question: What about the IC50 (MCF7) of the same compound?
Answer: Its IC50 is 28.5 µM.

Question: Which results are given for `COc1ccc(-c2cc(CN(c3nc4ccc(F)cc4s3)c3nc4ccc(OC)cc4s3)on2)cc1`?
Answer: IC50 (A549): 38.8 µM; IC50 (U-937): 138 µM; IC50 [4]: 11.4 µM; IC50 (MCF7): 32.4 µM

Question: With `Fc1ccccc1-c1cc(CN(c2ncccn2)c2nc3ccccc3s2)on1` as the compound, how does the IC50 (A549) read?
Answer: The IC50 was 25.4 µM.

Question: What about the IC50 (U-937) of the same compound?
Answer: Its IC50 is 27.6 µM.

Question: And the IC50 [4]?
Answer: The IC50 was 13.2 µM.

Question: And the IC50 (MCF7)?
Answer: The IC50 was 19.5 µM.

Question: With `COc1ccc2nc(N(Cc3cc(-c4ccc(SC(F)(F)F)cc4)no3)c3nc4ccc(F)cc4s3)sc2c1` as the compound, how does the IC50 (A549) read?
Answer: The IC50 was 26.5 µM.

Question: What about the IC50 (U-937) of the same compound?
Answer: Its IC50 is 42.9 µM.

Question: What about the IC50 [4] of the same compound?
Answer: Its IC50 is 11.1 µM.

Question: And the IC50 (MCF7)?
Answer: Its IC50 is 14.1 µM.
